In ChEMBL document CHEMBL4190187, “Discovery of pyrazolopyrimidine derivatives as novel inhibitors of ataxia telangiectasia and rad3 related protein (ATR)” (Bioorg Med Chem Lett, 2017):

Columns and labels:
[1] = biological target: Tyrosine-protein kinase Lyn (Mus musculus) (UniProt P25911); experiment: Inhibition of recombinant full-length mouse Lyn at 1 uM using poly(Glu,Tyr) 4:1 as substrate after 40 mins in presence of [gamma-33P]ATP by scintillation counting method
[2] = biological target: Insulin receptor (Homo sapiens) (UniProt P06213); experiment: Inhibition of recombinant human activated IR (1005 to 1310 residues) at 1 uM using KKKSPGEYVNIEFG as substrate after 40 mins in presence of [gamma-33P]ATP by scintillation counting method
[3] = biological target: Serine/threonine-protein kinase 3 (Homo sapiens) (UniProt Q13188); experiment: Inhibition of recombinant human MST2 (2 to end residues) at 1 uM using myelin basic protein as substrate after 40 mins in presence of [gamma-33P]ATP by scintillation counting method
[4] = biological target: Serine/threonine-protein kinase BRSK1 (Homo sapiens) (UniProt Q8TDC3); experiment: Inhibition of recombinant human BrSK1 (2 to end residues) at 1 uM using KKKVSRSGLYRSPSMPENLNRPR as substrate after 40 mins in presence of [gamma-33P]ATP by scintillation counting method
[5] = biological target: Serine/threonine-protein kinase 33 (Homo sapiens) (UniProt Q9BYT3); experiment: Inhibition of recombinant full-length human STK33 at 1 uM using myelin basic protein as substrate after 40 mins in presence of [gamma-33P]ATP by scintillation counting method
[6] = biological target: Rhodopsin kinase GRK7 (Homo sapiens) (UniProt Q8WTQ7); experiment: Inhibition of recombinant full-length human GRK7 at 1 uM using casein as substrate after 40 mins in presence of [gamma-33P]ATP by scintillation counting method
[7] = biological target: Casein kinase I isoform gamma-1 (Homo sapiens) (UniProt Q9HCP0); experiment: Inhibition of recombinant human CK1gamma1 (25 to 355 residues) at 1 uM using KRRRALS(p)VASLPGL as substrate after 40 mins in presence of [gamma-33P]ATP by scintillation counting method
[8] = biological target: Serine/threonine-protein kinase PAK 1 (Homo sapiens) (UniProt Q13153); experiment: Inhibition of recombinant human PAK1 (150 to end residues) at 1 uM using RRRLSFAEPG as substrate after 40 mins in presence of [gamma-33P]ATP by scintillation counting method
[9] = biological target: Serine/threonine-protein kinase pim-1 (Homo sapiens) (UniProt P11309); experiment: Inhibition of recombinant full-length human PIM1 at 1 uM using KKRNRTLTV as substrate after 40 mins in presence of [gamma-33P]ATP by scintillation counting method
[10] = biological target: eIF-2-alpha kinase GCN2 (Homo sapiens) (UniProt Q9P2K8); experiment: Inhibition of recombinant full-length human GCN2 at 1 uM using RSRSRSRSRSRSRSR as substrate after 40 mins in presence of [gamma-33P]ATP by scintillation counting method
[11] = biological target: SRSF protein kinase 2 (Homo sapiens) (UniProt P78362); experiment: Inhibition of recombinant human SRPK2 (46 to end residues) at 1 uM using RSRSRSRSRSRSRSR as substrate after 40 mins in presence of [gamma-33P]ATP by scintillation counting method
[12] = biological target: Mitogen-activated protein kinase 8 (Homo sapiens) (UniProt P45983); experiment: Inhibition of recombinant full-length human JNK1alpha1 at 1 uM using ATF2 as substrate after 40 mins in presence of [gamma-33P]ATP by scintillation counting method
[13] = biological target: Ephrin type-A receptor 1 (Homo sapiens) (UniProt P21709); experiment: Inhibition of recombinant human EPHA1 ([…]) at 1 uM using KKKSPGEYVNIEFG as substrate after 40 mins in presence of [gamma-33P]ATP by scintillation counting method
[14] = biological target: Receptor-interacting serine/threonine-protein kinase 2 (Homo sapiens) (UniProt O43353); experiment: Inhibition of recombinant human RIPK2 (1 to 299 residues) at 1 uM using myelin basic protein as substrate after 120 mins in presence of [gamma-33P]ATP by scintillation counting method
[15] = system: Mus musculus; experiment: Clearance in mouse at 2 mg/kg, iv or 10 mg/kg, po; format: ADME, organism-based; conditions: in vivo
[16] = biological target: DNA-dependent protein kinase catalytic subunit (Homo sapiens) (UniProt P78527); experiment: Inhibition of recombinant full-length human DNA-PK at 1 uM using GST-cMyc-p53 as substrate after 40 mins in presence of [gamma-33P]ATP by scintillation counting method
[17] = biological target: Protein-tyrosine kinase 2-beta (Homo sapiens) (UniProt Q14289); experiment: Inhibition of recombinant full-length human Pyk2 at 1 uM using poly(Glu,Tyr) 4:1 as substrate after 40 mins in presence of [gamma-33P]ATP by scintillation counting method
[18] = system: Tyrosine-protein kinase BTK (Homo sapiens), Q06187 [R28H]; experiment: Inhibition of recombinant full-length human BTK R28H mutant at 1 uM using LSNLYHQGKFLQTFCGSPLYRRR as substrate after 40 mins in presence of [gamma-33P]ATP by scintillation counting method
[19] = biological target: Epithelial discoidin domain-containing receptor 1 (Homo sapiens) (UniProt Q08345); experiment: Inhibition of recombinant human DDR1 (492 to end residues) at 1 uM using KKKSPGEYVNIEFG as substrate after 40 mins in presence of [gamma-33P]ATP by scintillation counting method
[20] = biological target: MAP/microtubule affinity-regulating kinase 4 (Homo sapiens) (UniProt Q96L34); experiment: Inhibition of recombinant full-length human MARK4 at 1 uM using KKKVSRSGLYRSPSMPENLNRPR as substrate after 40 mins in presence of [gamma-33P]ATP by scintillation counting method
[21] = biological target: Tyrosine-protein kinase Fyn (Homo sapiens) (UniProt P06241); experiment: Inhibition of recombinant full-length human Fyn at 1 uM using KVEKIGEGTYGVVYK as substrate after 40 mins in presence of [gamma-33P]ATP by scintillation counting method
[22] = biological target: Serine/threonine-protein kinase Nek3 (Homo sapiens) (UniProt P51956); experiment: Inhibition of recombinant full-length human NEK3 at 1 uM using myelin basic protein as substrate after 40 mins in presence of [gamma-33P]ATP by scintillation counting method
[23] = biological target: Maternal embryonic leucine zipper kinase (Homo sapiens) (UniProt Q14680); experiment: Inhibition of recombinant human MELK (1 to 340 residues) at 1 uM using KKLNRTLSFAEPG as substrate after 40 mins in presence of [gamma-33P]ATP by scintillation counting method
[24] = biological target: Myosin light chain kinase, smooth muscle (Homo sapiens) (UniProt Q15746); experiment: Inhibition of recombinant human MLCK (1425 to 1771 residues) at 1 uM using […] after 40 mins in presence of [gamma-33P]ATP by scintillation counting method
[25] = biological target: Vascular endothelial growth factor receptor 1 (Homo sapiens) (UniProt P17948); experiment: Inhibition of recombinant human Flt1 (783 to end residues) at 1 uM using KKKSPGEYVNIEFG as substrate after 40 mins in presence of [gamma-33P]ATP by scintillation counting method

Sequence of Serine/threonine-protein kinase 3 (Homo sapiens) (Q13188 whole entry): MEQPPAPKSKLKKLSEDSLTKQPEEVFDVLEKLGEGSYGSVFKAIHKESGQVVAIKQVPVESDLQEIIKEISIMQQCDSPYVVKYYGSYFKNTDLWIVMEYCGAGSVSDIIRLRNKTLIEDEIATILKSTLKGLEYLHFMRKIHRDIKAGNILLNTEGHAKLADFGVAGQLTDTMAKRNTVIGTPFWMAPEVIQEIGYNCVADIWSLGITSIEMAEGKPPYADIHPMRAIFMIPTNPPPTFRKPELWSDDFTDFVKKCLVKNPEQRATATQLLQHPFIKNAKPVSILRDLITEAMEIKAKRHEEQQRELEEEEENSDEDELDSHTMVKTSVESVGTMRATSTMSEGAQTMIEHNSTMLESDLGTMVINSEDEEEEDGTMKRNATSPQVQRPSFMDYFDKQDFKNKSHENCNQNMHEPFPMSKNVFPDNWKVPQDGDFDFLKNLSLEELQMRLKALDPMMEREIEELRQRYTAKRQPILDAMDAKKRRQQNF
Sequence of Rhodopsin kinase GRK7 (Homo sapiens) (Q8WTQ7 whole entry, the tested form may be a part, canonical isoform): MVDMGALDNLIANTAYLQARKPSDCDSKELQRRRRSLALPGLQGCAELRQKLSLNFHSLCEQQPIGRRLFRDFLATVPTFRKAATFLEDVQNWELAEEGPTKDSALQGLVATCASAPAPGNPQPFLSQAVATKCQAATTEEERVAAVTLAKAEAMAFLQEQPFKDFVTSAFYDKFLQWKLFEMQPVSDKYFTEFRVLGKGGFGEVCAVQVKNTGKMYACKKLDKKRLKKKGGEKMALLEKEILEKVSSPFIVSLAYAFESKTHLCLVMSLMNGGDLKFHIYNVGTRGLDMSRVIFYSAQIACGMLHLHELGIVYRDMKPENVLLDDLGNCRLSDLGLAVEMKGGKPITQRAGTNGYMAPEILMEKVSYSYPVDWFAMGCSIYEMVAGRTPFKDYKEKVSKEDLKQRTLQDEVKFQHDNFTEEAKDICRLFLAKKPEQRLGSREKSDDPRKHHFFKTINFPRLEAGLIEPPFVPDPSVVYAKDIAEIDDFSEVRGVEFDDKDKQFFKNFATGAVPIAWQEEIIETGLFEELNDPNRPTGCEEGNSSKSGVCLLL
Sequence of Myosin light chain kinase, smooth muscle (Homo sapiens) (Q15746 whole entry, the tested form may be a part): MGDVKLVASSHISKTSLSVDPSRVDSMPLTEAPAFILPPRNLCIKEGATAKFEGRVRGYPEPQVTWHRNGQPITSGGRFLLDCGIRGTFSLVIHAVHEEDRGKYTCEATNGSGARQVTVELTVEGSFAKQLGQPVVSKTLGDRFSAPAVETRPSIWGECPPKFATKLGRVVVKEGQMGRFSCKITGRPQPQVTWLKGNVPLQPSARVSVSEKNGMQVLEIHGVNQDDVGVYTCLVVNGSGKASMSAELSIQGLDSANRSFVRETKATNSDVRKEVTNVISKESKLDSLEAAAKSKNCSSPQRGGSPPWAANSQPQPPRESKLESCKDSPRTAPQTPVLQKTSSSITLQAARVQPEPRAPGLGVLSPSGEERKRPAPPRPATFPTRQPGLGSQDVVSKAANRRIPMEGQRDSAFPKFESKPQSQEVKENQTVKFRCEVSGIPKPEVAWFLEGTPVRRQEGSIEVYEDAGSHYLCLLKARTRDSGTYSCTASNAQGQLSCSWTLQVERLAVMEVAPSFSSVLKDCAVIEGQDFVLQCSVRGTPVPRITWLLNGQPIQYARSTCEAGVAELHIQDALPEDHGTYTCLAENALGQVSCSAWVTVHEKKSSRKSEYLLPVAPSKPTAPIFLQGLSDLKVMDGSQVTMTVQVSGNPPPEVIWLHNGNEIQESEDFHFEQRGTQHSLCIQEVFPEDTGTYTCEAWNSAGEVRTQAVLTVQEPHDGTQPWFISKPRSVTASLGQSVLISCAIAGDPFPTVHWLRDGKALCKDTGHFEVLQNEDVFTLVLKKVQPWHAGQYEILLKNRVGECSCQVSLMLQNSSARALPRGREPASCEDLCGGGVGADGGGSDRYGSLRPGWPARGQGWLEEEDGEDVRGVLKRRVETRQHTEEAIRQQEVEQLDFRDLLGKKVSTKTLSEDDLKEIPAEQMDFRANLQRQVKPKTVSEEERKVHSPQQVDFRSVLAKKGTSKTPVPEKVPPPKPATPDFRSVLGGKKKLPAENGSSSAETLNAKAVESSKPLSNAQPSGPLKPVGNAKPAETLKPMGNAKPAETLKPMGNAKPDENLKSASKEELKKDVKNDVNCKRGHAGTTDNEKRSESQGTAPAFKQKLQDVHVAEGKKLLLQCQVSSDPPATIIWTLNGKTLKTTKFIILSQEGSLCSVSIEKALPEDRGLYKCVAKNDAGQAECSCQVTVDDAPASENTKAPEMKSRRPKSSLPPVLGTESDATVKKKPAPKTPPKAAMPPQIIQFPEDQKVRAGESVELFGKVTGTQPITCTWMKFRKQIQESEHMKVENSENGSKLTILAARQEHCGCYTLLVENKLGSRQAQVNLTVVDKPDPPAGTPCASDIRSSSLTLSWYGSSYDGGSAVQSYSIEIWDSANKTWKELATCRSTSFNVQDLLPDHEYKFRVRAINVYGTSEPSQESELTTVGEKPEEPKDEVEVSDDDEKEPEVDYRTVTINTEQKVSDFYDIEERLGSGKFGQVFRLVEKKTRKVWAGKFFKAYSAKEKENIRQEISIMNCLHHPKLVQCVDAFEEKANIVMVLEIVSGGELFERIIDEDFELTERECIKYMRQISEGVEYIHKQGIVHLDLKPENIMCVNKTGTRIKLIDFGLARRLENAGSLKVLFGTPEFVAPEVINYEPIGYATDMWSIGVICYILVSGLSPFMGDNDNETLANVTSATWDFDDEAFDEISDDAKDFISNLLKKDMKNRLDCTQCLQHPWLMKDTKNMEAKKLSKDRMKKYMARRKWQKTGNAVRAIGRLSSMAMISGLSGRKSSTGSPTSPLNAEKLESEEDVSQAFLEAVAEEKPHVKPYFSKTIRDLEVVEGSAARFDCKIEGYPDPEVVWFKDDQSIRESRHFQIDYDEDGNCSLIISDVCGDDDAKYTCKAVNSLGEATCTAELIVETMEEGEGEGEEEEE
Sequence of Tyrosine-protein kinase Fyn (Homo sapiens) (P06241 2-537 limits assumed): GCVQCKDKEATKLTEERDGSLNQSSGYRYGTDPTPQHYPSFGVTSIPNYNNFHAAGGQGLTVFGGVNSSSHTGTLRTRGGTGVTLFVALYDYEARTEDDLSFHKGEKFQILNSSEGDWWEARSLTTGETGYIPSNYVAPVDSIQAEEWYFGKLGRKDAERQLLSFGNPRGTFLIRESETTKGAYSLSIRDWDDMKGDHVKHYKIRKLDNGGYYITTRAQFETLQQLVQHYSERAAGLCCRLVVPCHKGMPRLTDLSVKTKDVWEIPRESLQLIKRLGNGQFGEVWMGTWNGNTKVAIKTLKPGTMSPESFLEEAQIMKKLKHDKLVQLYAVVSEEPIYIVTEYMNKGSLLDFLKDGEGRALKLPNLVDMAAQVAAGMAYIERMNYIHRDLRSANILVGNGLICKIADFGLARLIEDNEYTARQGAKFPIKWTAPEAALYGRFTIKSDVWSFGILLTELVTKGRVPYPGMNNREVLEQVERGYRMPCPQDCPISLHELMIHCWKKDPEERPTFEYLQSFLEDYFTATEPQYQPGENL
Sequence of Mitogen-activated protein kinase 8 (Homo sapiens) (P45983 whole entry): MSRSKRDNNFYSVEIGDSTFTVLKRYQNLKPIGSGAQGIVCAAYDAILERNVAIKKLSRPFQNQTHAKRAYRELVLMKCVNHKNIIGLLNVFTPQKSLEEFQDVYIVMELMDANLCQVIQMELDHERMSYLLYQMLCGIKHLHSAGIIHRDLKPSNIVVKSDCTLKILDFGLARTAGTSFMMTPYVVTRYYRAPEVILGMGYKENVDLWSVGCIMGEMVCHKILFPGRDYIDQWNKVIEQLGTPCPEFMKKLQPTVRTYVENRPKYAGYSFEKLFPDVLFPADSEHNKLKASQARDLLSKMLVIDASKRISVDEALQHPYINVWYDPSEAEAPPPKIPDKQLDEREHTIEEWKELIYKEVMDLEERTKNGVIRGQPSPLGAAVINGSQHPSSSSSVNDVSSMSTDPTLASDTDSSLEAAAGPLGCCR
Sequence of Ephrin type-A receptor 1 (Homo sapiens) (P21709 whole entry, the tested form may be a part): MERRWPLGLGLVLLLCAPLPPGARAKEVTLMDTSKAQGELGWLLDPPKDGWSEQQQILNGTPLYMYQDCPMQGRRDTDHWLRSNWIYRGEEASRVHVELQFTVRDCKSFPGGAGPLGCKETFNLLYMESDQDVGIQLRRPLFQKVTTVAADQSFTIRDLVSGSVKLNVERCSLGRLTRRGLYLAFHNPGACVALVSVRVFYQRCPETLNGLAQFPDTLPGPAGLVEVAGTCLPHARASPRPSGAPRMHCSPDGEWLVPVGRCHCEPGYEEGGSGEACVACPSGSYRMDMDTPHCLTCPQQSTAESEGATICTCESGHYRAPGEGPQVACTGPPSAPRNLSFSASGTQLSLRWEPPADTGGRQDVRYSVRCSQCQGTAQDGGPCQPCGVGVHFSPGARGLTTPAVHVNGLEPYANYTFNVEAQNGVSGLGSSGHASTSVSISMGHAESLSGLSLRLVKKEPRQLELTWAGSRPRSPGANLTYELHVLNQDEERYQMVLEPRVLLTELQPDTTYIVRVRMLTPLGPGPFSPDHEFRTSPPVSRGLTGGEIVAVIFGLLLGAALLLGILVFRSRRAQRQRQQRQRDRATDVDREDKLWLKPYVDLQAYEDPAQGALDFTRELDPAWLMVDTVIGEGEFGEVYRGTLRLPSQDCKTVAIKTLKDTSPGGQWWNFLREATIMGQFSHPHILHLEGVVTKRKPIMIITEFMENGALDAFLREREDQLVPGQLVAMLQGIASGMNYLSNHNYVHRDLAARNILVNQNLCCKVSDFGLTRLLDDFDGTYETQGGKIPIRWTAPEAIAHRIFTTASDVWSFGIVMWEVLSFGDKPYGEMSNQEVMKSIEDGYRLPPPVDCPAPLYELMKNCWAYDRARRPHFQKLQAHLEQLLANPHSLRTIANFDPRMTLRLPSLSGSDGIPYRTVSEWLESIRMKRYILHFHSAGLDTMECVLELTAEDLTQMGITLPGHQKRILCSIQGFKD

CS(=O)(=O)c1ccc(-n2nc(-c3cnc4[nH]ccc4c3)c3c(N)ncnc32)cc1
inhibition [1]: 45% | inhibition [2]: 14% | inhibition [3]: 8% | inhibition [4]: 13% | inhibition [5]: 4% | inhibition [6]: -3% | inhibition [7]: 4% | inhibition [8]: 4% | inhibition [9]: -2% | inhibition [10]: 2% | inhibition [11]: 0% | inhibition [12]: 1% | inhibition [13]: 24% | inhibition [14]: 70% | CL [15]: 22.2 mL/min/kg | inhibition [16]: 59% | inhibition [17]: 25% | inhibition [18]: 5% | inhibition [19]: 92% | inhibition [20]: -3% | inhibition [21]: 90% | inhibition [22]: -7% | inhibition [23]: 28% | inhibition [24]: 4% | inhibition [25]: 59%
